Key:
[1] = Hansch, C. et al. (1995); cited from earlier work
[2] = Partition coefficient between crude oil and aqueous phase (microfluidic mixer, functionalized glass fiber separation tube, HPLC UV-Vis); type: physicochemical; conditions: tracer at 100 ppm, after mixing with crude oil and separation
Experimental: In step 2700, the partition coefficient is calculated using the measurement from step 2600 and the reference points and calibration curve from step 2100. The partition coefficient of a substance “A” is defined as
where [A]org is the concentration of substance A in the organic phase, and [A]aq is the concentration of substance A in the water phase, with equal volumes of organic and aqueous phases at equilibrium. The detection system 1300 and the calibration curve from the step 2100 can provide [A]aq. [A]total can be obtained from the step 2200 and [A]org can be calculated as [A]org=[A]total−[A]aq.
A partition coefficient detection system was constructed using a teardrop microfluidic mixer (micronit), a functionalized glass fiber packed capillary tube oil/water phase separator, and a 1D HPLC UV-Vis detector (Agilent, 1290 Infinity HPLC system).
To prepare the functionalized glass fiber packed capillary tube oil/water phase separator, a hydrophobic fiber filtration material was prepared by chemically functionalizing surfaces of glass wool. […] The washed glass wool was immersed in 20 mL Piranha solution (3:1 mixture of concentrated sulfuric acid and 30% hydrogen peroxide) for 30 mins, then the treated glass wool was removed from the Piranha solution and rinsed with DI water until the pH value of the water used for rinsing was near neutral pH (pH=7±1), as monitored by a pH meter. […]

partitioning behavior between crude oil and aqueous phase (FIG. 4) [2] | Compound | partition coefficient (log P), value from the literature [1]
did show partitioning behavior | OCc1ccc(Cl)cc1 [4-CBA, 4-chlorobenzyl alcohol] | 1.96
did not show partitioning behavior | O=C(O)c1ccccc1F [2-fluorobenzoic acid] | –

Reference: patent US20250362274A1, “SYSTEMS AND METHODS TO DETERMINE PARTITION COEFFICIENTS BETWEEN CRUDE OIL AND AN AQUEOUS PHASE” (Saudi Arabian Oil Company, priority 2024, published 2025)
